Data as given in patent US20230066946A1, “1,5-DIPHENYLPYRAZOLYL-3-OXYALKYL ACIDS AND 1-PHENYL-5-THIENYLPYRAZOLYL-3-OXYALKYL ACIDS AND THE USE THEREOF FOR CONTROL OF UNWANTED PLANT GROWTH” (Bayer Aktiengesellschaft, priority 2019, published 2023).

Columns and labels:
[1] = system: VERPE; assay: Pre-emergence herbicidal action against VERPE; format: in vivo, Veronica persica; conditions: 320 g/ha, scored visually after about 3 weeks vs untreated controls
Outline: (§1)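 Visual percent activity (100% = plants dead, 0% = like control) scored about 3 weeks after pre-emergence treatment in greenhouse. Compounds as WP or EC, applied to covering soil surface with 0.5% additive, 600 L/ha water, at 1280 or 320 g/ha.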

[2] = system: VERPE; assay: Post-emergence herbicidal action against VERPE; format: in vivo, Veronica persica; conditions: 320 g/ha, visual rating about 3 weeks after treatment
Outline: (§2)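 Visual % damage (100% = dead, 0% = like untreated control) was scored about 3 weeks after foliar spraying of one-leaf-stage plants grown in sandy loam. Doses were 1280 or 320 g/ha, applied as aqueous WP/EC preparations with 0.5% additive in 600 litres per hectare water.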

[3] = system: AVEFA; assay: Post-emergence herbicidal action against AVEFA; format: in vivo, Avena fatua; conditions: 1280 g/ha, post-emergence at one-leaf stage, rated visually after about 3 weeks vs untreated controls
Procedure: (§3) [table] Seeds of mono- and dicotyledonous weed plants are placed in plastic pots in sandy loam soil (twin sowing with one species each of mono- or dicotyledonous weed plants per pot), covered with soil and cultivated in a greenhouse under controlled growth conditions. 2 to 3 weeks after sowing, the test plants are treated at the one-leaf stage. The compounds of the invention, formulated in the form of wettable powders (WP) or as emulsion concentrates (EC), are applied to the green parts of the plants as aqueous suspension or emulsion with addition of 0.5% additive at a water application rate equivalent to 600 litres per hectare. After the test plants have been kept in the greenhouse under optimum growth conditions for about 3 weeks, the activity of the preparations is rated visually in comparison to untreated controls. For example, 100% activity=the plants have died, 0% activity=like control plants. Tables 5.1-5.16 below show the effects of selected compounds of the general formula (I) according to Tables 1 to 3 on various harmful plants at an application rate corresponding to 1280 or 320 g/ha, which have been obtained by the aforementioned experimental method.

[4] = system: MATIN; assay: Post-emergence herbicidal action against MATIN; format: in vivo, Matricaria inodora; conditions: visual rating about 3 weeks after treatment
Outline: as §2

[5] = system: VIOTR; assay: Post-emergence herbicidal action against VIOTR; format: in vivo, Viola tricolor; conditions: 320 g/ha, visual rating about 3 weeks after treatment
Outline: as §2

[6] = system: SETVI; assay: Pre-emergence herbicidal action against SETVI; format: in vivo, Setaria viridis; conditions: 1280 g/ha, scored visually after about 3 weeks vs untreated controls
Outline: as §1

[7] = system: AMARE; assay: Pre-emergence herbicidal action against AMARE; format: in vivo, Amaranthus retroflexus; conditions: scored visually after about 3 weeks vs untreated controls; for Pre-emergence action at 320 g/ha against AMARE in %: 100% = plants have died, 0% = like control plants; for Pre-emergence action against AMARE in %: 1280 g/ha
Outline: as §1

[8] = system: AMARE; assay: Post-emergence herbicidal action against AMARE; format: in vivo, Amaranthus retroflexus; conditions: visual rating about 3 weeks after treatment
Outline: as §2

[9] = system: ECHCG; assay: Post-emergence herbicidal action against ECHCG; format: in vivo, Echinochloa crus-galli; conditions: 1280 g/ha, post-emergence at one-leaf stage, rated visually after about 3 weeks vs untreated controls
Outline: as §2

[10] = system: STEME; assay: Post-emergence herbicidal action against STEME; format: in vivo, Stellaria media; conditions: visual rating about 3 weeks after treatment
Outline: as §2

[11] = system: ALOMY; assay: Pre-emergence herbicidal action against ALOMY; format: in vivo, Alopecurus myosuroides; conditions: scored visually after about 3 weeks vs untreated controls, 100% = plants have died, 0% = like control plants
Text: (§4) Seeds of mono- and dicotyledonous weed plants are placed in plastic pots in sandy loam soil (doubly sown with one species each of mono- or dicotyledonous weed plants per pot) and covered with soil. The compounds of the invention, formulated in the form of wettable powders (WP) or as emulsion concentrates (EC), are then applied onto the surface of the covering soil as aqueous suspension or emulsion with addition of 0.5% additive at a water application rate equivalent to 600 litres per hectare. After the treatment, the pots are placed in a greenhouse and kept under good growth conditions for the trial plants. After about 3 weeks, the effect of the preparations is scored visually in comparison with untreated controls as percentages. For example, 100% activity=the plants have died, 0% activity=like control plants. [table] Tables 4.1-4.15 below show the effects of selected compounds of the general formula (I) according to Tables 1 to 3 on various harmful plants at an application rate corresponding to 1280 or 320 g/ha, which have been obtained by the aforementioned experimental method.

[12] = system: PHBPU; assay: Post-emergence herbicidal action against PHBPU; format: in vivo, Pharbitis purpurea; conditions: 320 g/ha, visual rating about 3 weeks after treatment
Outline: as §2

[13] = system: MATIN; assay: Pre-emergence herbicidal action against MATIN; format: in vivo, Matricaria inodora; conditions: 1280 g/ha, scored visually after about 3 weeks vs untreated controls
Outline: as §1

[14] = system: SETVI; assay: Post-emergence herbicidal action against SETVI; format: in vivo, Setaria viridis; conditions: 1280 g/ha, post-emergence at one-leaf stage, rated visually after about 3 weeks vs untreated controls
Outline: as §2

[15] = system: harmful plants; assay: Pre-emergence herbicidal action, summary of Tables 4.1-4.15; format: in vivo; conditions: result in words
Text: as §4, with “plants.” for “plants. [table] Tables 4.1-4.15 below show the effects of selected compounds of the general formula (I) according to Tables 1 to 3 on various harmful plants at an application rate corresponding to 1280 or 320 g/ha, which have been obtained by the aforementioned experimental method.”
Tables 4.1-4.15 below show the effects of selected compounds of the general formula (I) according to Tables 1 to 3 on various harmful plants at an application rate corresponding to 1280 or 320 g/ha, which have been obtained by the aforementioned experimental method.
For example, compounds no. I-008, I-056, I-057, I-061, I-067, I-070 and I-072 applied by the pre-emergence method have very good action (80% to 100% herbicidal action) against harmful plants such as Alopecurus myosuroides, Amaranthus retroflexus, Matricaria inodora, Polygonum convolvulus, Setaria viridis and Stellaria media at an application rate of 1.28 kg of active substance or less per hectare.

[16] = system: STEME; assay: Pre-emergence herbicidal action against STEME; format: in vivo, Stellaria media; conditions: scored visually after about 3 weeks vs untreated controls
Outline: as §1

[17] = system: harmful plants; assay: Post-emergence herbicidal action, summary of Tables 5.1-5.16; format: in vivo; conditions: result in words
Procedure: as §3, with “Seeds” for “[table] Seeds”, “method. As the results from Tables 5.1-5.16 show, compounds of the invention have good herbicidal post-emergence efficacy against a broad spectrum of weed grasses and weeds. […] For example, compounds Nos. I-002, I-006, I-022, I-056 and I-072 applied by the post-emergence method have very good herbicidal action (80% to 100% herbicidal action) against harmful plants such as Alopecurus myosuroides, Amaranthus retroflexus, Matricaria inodora, Setaria viridis, Pharbitis purpurea and Stellaria media at an application rate of 1.28 kg of active substance or less per hectare.” for “method.”

[18] = system: ALOMY; assay: Post-emergence herbicidal action against ALOMY; format: in vivo, Alopecurus myosuroides; conditions: 1280 g/ha, post-emergence at one-leaf stage, rated visually after about 3 weeks vs untreated controls
Procedure: as §3

[19] = system: CYPES; assay: Pre-emergence herbicidal action against CYPES; format: in vivo, Cyperus esculentus; conditions: scored visually after about 3 weeks vs untreated controls, 100% = plants have died, 0% = like control plants
Text: as §4

[20] = system: VIOTR; assay: Pre-emergence herbicidal action against VIOTR; format: in vivo, Viola tricolor; conditions: 1280 g/ha, scored visually after about 3 weeks vs untreated controls
Text: as §4

| Compound | Pre-emergence action against VERPE in % [1] [%] | Post-emergence action against VERPE in % [2] [%] | Post-emergence action against AVEFA in % [3] [%] | Post-emergence action against MATIN in % ([4]; 1280 g/ha) [%] | Post-emergence action against VIOTR in % [5] [%] | Pre-emergence action against SETVI in % [6] [%] | Pre-emergence action at 320 g/ha against AMARE in % [7] [%] | Pre-emergence action against AMARE in % [7] [%] | Post-emergence action against AMARE in % ([8]; 320 g/ha) [%] | Post-emergence action against AMARE in % ([8]; 1280 g/ha) [%] | Post-emergence action against ECHCG in % [9] [%] | Post-emergence action against STEME in % ([10]; 320 g/ha) [%] | Post-emergence action against STEME in % ([10]; 1280 g/ha) [%] | Post-emergence action against PHBPU in % [12] [%] | Pre-emergence action against MATIN in % [13] [%] | Post-emergence action against SETVI in % [14] [%] | herbicidal efficacy against harmful plants in the case of pre-emergence treatment [15] | Pre-emergence action against STEME in % ([16]; 1280 g/ha) [%] | herbicidal efficacy against harmful plants when applied post-emergence [17] | Post-emergence action against ALOMY in % [18] [%] | further results |
| --- | --- | --- | --- | --- | --- | --- | --- | --- | --- | --- | --- | --- | --- | --- | --- | --- | --- | --- | --- | --- | --- |
| COC(=O)COc1nn(-c2ccc(F)cc2)c(-c2ccc(F)c(F)c2)c1Cl [I-025] | 80 | 80 | 80 | 80 | 80 | 80 | 90 | 90 | 80 | 80 | – | – | – | – | – | – | – | – | – | – | – |
| COC(=O)COc1nn(-c2ccccc2)c(-c2cccc(F)c2)c1Cl [I-002] | 100 | 80 | – | 80 | – | – | 100 | 100 | 80 | 90 | 80 | 80 | 90 | 80 | 100 | 80 | good herbicidal efficacy | 100 | very good herbicidal efficacy | 80 | Pre-emergence action at 1280 g/ha against ALOMY in % [11]: 80%; Pre-emergence action against STEME in % ([16]; 320 g/ha): 80% |
| COC(=O)COc1nn(-c2ccc(F)cc2)c(-c2ccc(F)c(F)c2)c1C#N [I-036] | – | 80 | 80 | 80 | 80 | 80 | – | 80 | – | – | – | 80 | 80 | 80 | – | – | – | – | – | – | Post-emergence action against MATIN in % ([4]; 320 g/ha): 80% |
| COC(=O)COc1nn(-c2ccccc2)c(-c2cccc(F)c2)c1C#N [I-021] | 90 | – | – | 80 | – | – | 100 | 100 | 80 | 80 | 80 | 80 | 80 | 80 | 90 | – | good herbicidal efficacy | 90 | very good herbicidal efficacy | 80 | Pre-emergence action at 1280 g/ha against CYPES in % [19]: 100%; Pre-emergence action against VIOTR in % [20]: 90% |
| COC(=O)COc1nn(-c2ccc(F)cc2)c(-c2ccc(F)cc2)c1C#N [I-009] | – | – | 80 | – | – | – | – | – | – | 80 | – | – | – | – | – | 80 | – | – | – | – | – |
| COC(=O)COc1nn(-c2ccc(F)cc2)c(-c2ccc(F)cc2)c1Cl [I-006] | – | – | – | 80 | – | – | 80 | 100 | – | 100 | – | – | 80 | 80 | – | 90 | – | 100 | very good herbicidal efficacy | 80 | Pre-emergence action at 1280 g/ha against CYPES in % [19]: 100% |
